The nature of this data set: Solubility of itraconazole in polymer solutions at 298K. The class given is physicochemical. Particulars: eudragit E100 solution versus PVPVA64 solution. From the text: FIG. 10: Solubility of itraconazole in different concentration of polymer solutions at 298K in eudragit E100 (open bars) and PVPVA64 (closed bars).

With `CCC(C)n1ncn(-c2ccc(N3CCN(c4ccc(OCC5COC(Cn6cncn6)(c6ccc(Cl)cc6Cl)O5)cc4)CC3)cc2)c1=O` (stereo not shown) [itraconazole, Itraconazole], the “solubility in polymer solution (comparison in words)” value is on record as “much higher in eudragit E100 solution”.

The values are drawn from patent publication US7407670B2, “Solid dispersions comprising two different polymer matrixes” (Janssen Pharmaceutica, N.V., priority 2002, dated 2008).
